From PubChem BioAssay AID179 (DTP/NCI, 2004) come the findings set out here.

SMILES strings stand for the structures. “And” between values parts separate entries of the source, which are not always exact repeats. Equal entries are not always repeated. The source made the active and inactive calls.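 The calls were made as follows: active = compounds giving half or more protection of infected cells from virus-caused growth loss, again on retest; inactive = the rest.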

This test deals with CEM cells HIV-1 protection, formazan growth assay. Description: NCI AIDS Antiviral Assay. The following applies: for IC50: measured here: growth of uninfected CEM cells. Put shortly:
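Human CEM cells, uninfected and HIV-1-infected, exposed to five drug concentrations; growth measured by soluble formazan assay and scored as percent protection from infection, with protecting compounds retested.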

Turning to `COc1ccc(/C=N/O)cc1OC`, the EC50 was over 1380 µM and the concentration for half-maximal inhibition (IC50) turned out to be 776 µM.

With `C=C1C(OC(=O)C(O)C(c2ccccc2)N(C)C)C[C@H](OC(C)=O)[C@]2(C)C1C[C@@H]1CC(OC(C)=O)C(C)=C([C@@H](OC(C)=O)C2OC(C)=O)C1(C)C` (some centres not stated), the result was inactive.

Take `CCOP(=O)(OCC)/C(C#N)=C/c1cccc(C)c1`: the EC50 is over 339 µM and the IC50 is over 339 µM.

On to `Cc1nc(C)c(N2CCN([N+](=O)[O-])CC2)c(=O)[nH]1`, for which the EC50 is over 200 µM and the IC50 was over 200 µM.

In the case of `Brc1ccc(-c2nc(-c3ccc(Br)cc3)n(-c3ccccc3)n2)cc1`, the EC50 was over 200 µM and the IC50 was 93.3 µM.

Take `O=c1[nH]nc(NCCc2ccccc2)c2nnn(Cc3ccccc3)c12`: the EC50 is over 200 µM and the IC50 was over 200 µM.

With `O=C1C=C(C23CC4CC(CC(C4)C2)C3)Nc2ccccc2N1`, the EC50 is over 200 µM.

For the compound `C[N+](C)(C)CC(=O)N/N=C(\C(=O)Nc1ccc(Cl)cc1)C1C(=O)N(c2ccccc2)N=C1N` (configuration not stated), the EC50 was over 17.8 µM and the IC50 was over 17.8 µM.

On to `CCOc1ccc(/C=C2\NC(=S)N(/C=C3\C(=O)Oc4ccccc4C3=O)C2=O)cc1`, for which the outcome was inactive.

Turning to `O=C1c2ccccc2C2(O)c3cc4ccccc4cc3OC12O` (configuration not stated), the EC50 is over 589 µM and the IC50 turned out to be 44.7 µM.

Regarding `CCc1cc(=O)oc2c3c(cc(OC(C)C)c12)O[C@H](C)[C@@H](C)C3=O`, the EC50 was over 200 µM and the IC50 came to 15.5 µM.

Turning to `O=C1C2(CCCC13OC3c1ccccc1)OC2c1ccccc1` (configuration not stated), the EC50 was over 200 µM and the half-maximal inhibitory concentration (IC50) was determined as 115 µM.

Take `O=C(NC1C=CCC2C(=O)N(c3ccccc3)C(=O)C12)OCc1ccccc1` (configuration not stated): the outcome was inactive.

Take `N#Cc1nc(Cc2cccs2)oc1N`: the EC50 was over 200 µM and the IC50 is over 200 µM.

As for `CC(=O)c1cc2sc3ccccc3c2[nH]1`, the EC50 was over 200 µM and the IC50 was over 200 µM.

For `COC(=O)N/N=C(/CCN1CCCC1)CC(c1ccccc1)c1c(O)c2ccccc2oc1=O` (configuration not stated), the EC50 was over 89.1 µM and the IC50 is 83.2 µM.

With `CCCCCCCCCCCCCCCC(=O)OC(CC(=O)O)C[N+](C)(C)C` (configuration not stated), the outcome was inactive.

On to `C=C1C(=O)O[C@@H]2CC(C)C3C(OC(C)=O)CC(OC(C)=O)[C@@]3(C)C[C@H]12` (some centres not stated), for which the EC50 is over 102 µM and the IC50 is 5.37 µM.

On to `CCOC(=O)C(=CNC(=S)Nc1c(CC)cccc1CC)C(=O)OCC`, for which the EC50 is over 200 µM and the concentration for half-maximal inhibition (IC50) was over 200 µM.

In the case of `N#CC1Nc2ccccc2[C@@H](O)C1O` (some centres not stated), the EC50 was over 1320 µM and the IC50 came out at 240 µM.

As for `COC1(CC[C@@H](C)COC2OC(CO)C(O)C(O)C2O)O[C@H]2C[C@H]3[C@@H]4CC=C5C[C@@H](OC6OC(CO)C(OC7OC(C)C(O)C(O)C7O)C(O)C6OC6OC(C)C(O)C(O)C6O)CC[C@]5(C)[C@H]4CC[C@]3(C)[C@H]2[C@@H]1C` (some centres not stated), the EC50 is over 200 µM and the IC50 is 2.57 µM.

Turning to `COC(=O)c1ccc2c(c1)C(O)NC(=O)O2` (configuration not stated), the EC50 was over 200 µM and the IC50 came to 34.7 µM.

Regarding `NC(CSSCC(N)=NCC12CC3CC(CC(C3)C1)C2)=NCC12CC3CC(CC(C3)C1)C2`, the EC50 was over 200 µM and the IC50 came to 30.9 µM.

For the compound `CC(C)N(C(=O)c1cccc(C(=O)N(C(C)C)C(C)C)c1)C(C)C`, the EC50 was over 759 µM and the IC50 is 468 µM.

Regarding `C[C@]12CCNC(=O)C=C1CC[C@@H]1C2CC[C@@]2(C)C1CC[C@@H]2OC(=O)COc1ccc(N(CCCl)CCCl)cc1` (some centres not stated), the outcome was inactive.

With `O=C(Nc1ccc(Br)cc1)c1c(-c2ccccc2)c2ccc(O)cc2oc1=O`, the EC50 was over 34.7 µM and the IC50 was found to be 32.4 µM.

Turning to `COC(=O)CCC=C(c1cc(Cl)c(OC)c(C(=O)OC)c1)c1cc(Cl)c(OC)c(C(=O)OC)c1`, the EC50 was over 200 µM and the IC50 was 44.7 µM.

For the compound `COc1ccc(C(c2ccc3cccnc3c2O)c2oc(CO)cc(=O)c2O)cc1` (configuration not stated), the outcome was inactive.

Turning to `O=[N+]([O-])c1ccc(CN=C2NNS(=O)(=O)c3ccccc32)cc1`, the EC50 was over 15.8 µM and the IC50 is over 15.8 µM.

As to `O=C1CN(c2ccccc2)C(=O)CN1NCNN1CC(=O)N(c2ccccc2)CC1=O`, the EC50 is over 200 µM and the IC50 was over 200 µM.

With `CCC(C)(O)c1cn(-c2cccc(S(=O)(=O)O)c2)nn1` (configuration not stated), the EC50 was over 417 µM and the IC50 was over 417 µM.

As for `O=[N+]([O-])c1nccn1CCCN=c1c2ccccc2n(O)c2ccccc12`, the EC50 is over 200 µM and the IC50 stood at 46.8 µM.

Turning to `c1scc2c1COCCOCCOCCOCCOCCOCCOC2`, the EC50 was over 646 µM and the IC50 is over 646 µM.

As to `CC(C)[Si](OCC/C=C/C1CCC(=O)C1C(O)C1CCCCC1)(C(C)C)C(C)C` (configuration not stated), the result was inactive.

With `CN/N=C(\C(=O)Nc1ccc([N+](=O)[O-])cc1[N+](=O)[O-])C1NC(=O)NC1=O` (configuration not stated), the EC50 was over 66.1 µM and the IC50 was over 66.1 µM.

Regarding `CCOC(=O)C(CC(C(=O)OCC)C(=O)OCC)C(=O)OCC`, the result was inactive.

Regarding `Cc1cc2c(cc1C)N1Cc3c(ccc(C)c3C)N(C2)C1` (tested in a mixture with another compound), the outcome was inactive.

For the compound `S=C(NNc1ccccc1Oc1ccccc1)NNc1ccccc1Oc1ccccc1`, the EC50 is over 100 µM and the IC50 was over 100 µM.

Turning to `Nc1ncnc2c1ncn2C1OC(COP(=O)(O)O)C(O)C1O` (configuration not stated), the EC50 was over 200 µM and the IC50 was over 200 µM.

`ON/N=C/c1cc2c(cc1Br)OCO2`: the EC50 was over 263 µM and the IC50 was found to be 186 µM.

For `C=C(C(=O)O)C1CC[C@@]2(C)CC(O)CC(=C)C2C1` (some centres not stated), the EC50 is over 200 µM and the IC50 is over 200 µM.

For `COc1ccc(C(=C2C(=O)OC(=O)C2=C(C)C)c2ccc(OC)cc2)cc1`, the EC50 is over 200 µM and the IC50 stood at 95.5 µM.

For the compound `COc1cc(CNc2nc3ccccc3nc2-c2cccs2)cc(OC)c1OC`, the EC50 was over 200 µM and the IC50 stood at 14.8 µM.

Consider `O=C1SC(c2ccccc2)(c2ccccc2)c2cscc21`, for which the EC50 is over 61.7 µM and the IC50 is over 61.7 µM.

For the compound `CN(C)C(=O)Sc1nnc(C(C)(C)C)o1`, the EC50 was over 200 µM and the IC50 is over 100 µM.

Take `Cc1cc(N(CCC#N)CCC#N)ccc1/C=C/C(=O)Nc1ccccc1Cl`: the EC50 is over 457 µM and the IC50 is over 457 µM.

Consider `O=C1c2ccccc2C(=Nc2ccc3ccccc3c2)C1(C1=C(c2ccccc2)C(=Nc2ccc3ccccc3c2)c2ccccc21)c1ccccc1` (configuration not stated), for which the EC50 was over 200 µM and the IC50 worked out at 11.7 µM.

Turning to `CN(C)CC1CCCC(CN(C)C)C1=NOC(=O)c1ccccc1` (configuration not stated), the EC50 was over 200 µM and the IC50 turned out to be 174 µM.

As to `Brc1ccc(N2N=NC3C4CC(C5CCCC54)C32)cc1` (configuration not stated), the EC50 was over 5.62 µM and the 50% inhibitory concentration (IC50) was over 5.62 µM.

For the compound `Cc1cc(=O)oc2cc(O)cc(O)c12`, the EC50 was over 1290 µM and the IC50 was determined as 166 µM.

Turning to `C=C(C)c1nc(C#N)c(N)o1`, the EC50 was over 200 µM and the IC50 was over 200 µM.

Regarding `CCCCCCCCCCCCCCCCCCC1=C(O)C(=O)C=C(OC)C1=O`, the EC50 was over 200 µM and the IC50 is 49 µM.

Consider `O=C1Nc2ccccc2Cn2c1cc1oc(-c3ccccc3)cc12`, for which the EC50 was over 200 µM and the IC50 was found to be 191 µM.

Take `CC(C)C1=CC23CCC4C(C)(C(=O)O)CCCC4(C)C2CC1C1C(=O)N(c2ccccc2N2C(=O)C4C5CC6C7(C)CCCC(C)(C(=O)O)C7CCC6(C=C5C(C)C)C4C2=O)C(=O)C13` (configuration not stated): the EC50 was over 141 µM and the IC50 amounted to 8.13 µM.

For `CC(C)=C=CP(=O)(O)c1ccccc1`, the EC50 is over 200 µM and the IC50 was over 200 µM.

Turning to `N#Cc1c(N)c2c(c(-c3ccccc3)c1-c1ccccc1)C(=O)N(O)C2=O`, the EC50 was over 200 µM and the IC50 is 44.7 µM.

`Fc1cccc(F)c1C1SCc2nc3ccccc3n21` (configuration not stated): the IC50 is 41.7 µM and 56.2 µM.

Turning to `Cc1cc2c(cc1C)[n+](=O)cc(C(=O)C/C(=N/NC(=S)NN)C(=O)Nc1cccc(C(F)(F)F)c1)n2[O-]`, the EC50 was over 126 µM and the IC50 is over 126 µM.

On to `O=C1C2CSCC1CN(Cc1ccccc1)C2`, for which the EC50 was over 525 µM and the IC50 was over 525 µM.

In the case of `Cc1ccc(-c2nc(SCC(=O)O)n[nH]2)cc1`, the EC50 is over 1000 µM and the IC50 was found to be 708 µM.

Turning to `O=C1C(N=Nc2ccccc2)Sc2nc3ccccc3n21` (configuration not stated), the EC50 is over 200 µM and the IC50 is 85.1 µM.

Take `N#CC(NNC(=O)Cc1ccccc1)c1cccc(O)c1` (configuration not stated): the EC50 is over 468 µM and the IC50 stood at 158 µM.

As for `COc1ccc(CNc2cnc3cc(N)ccc3n2)cc1OC`, the EC50 was over 115 µM and the IC50 was over 115 µM.

Take `COc1cc2c(cc1O)[C@H](C)C(c1ccc(OC)c(OC)c1)O2` (some centres not stated): the EC50 was over 214 µM and the IC50 stood at 10.5 µM.

With `OCCNNCCO`, the EC50 was over 200 µM and the 50% inhibitory concentration (IC50) was over 200 µM.

`COc1cccc(C2CCCC(C#N)C2=N)c1OC` (configuration not stated): the EC50 is over 200 µM and the half-maximal inhibitory concentration (IC50) was 126 µM.

Turning to `C=CC1(C)C=C2C(O)CC3C(C)(C(=O)OC)CCCC3(C)C2CC1` (configuration not stated), the EC50 is over 21.9 µM and the IC50 stood at 11 µM.

For the compound `O=C(CCC(=O)c1ccc(Cl)cc1)NO`, the EC50 is over 200 µM and the IC50 was 123 µM.

In the case of `O=c1c2ncn(CCCl)c2n(-c2ccccc2)c(=S)n1-c1ccccc1`, the EC50 is over 200 µM and the IC50 was over 200 µM.

For the compound `C#CCN1C(=O)NC(c2ccccc2)(c2ccccc2)C1=O.[C-]#[O+].[C-]#[O+].[C-]#[O+].[C-]#[O+].[C-]#[O+].[C-]#[O+].[Co].[Co]`, the EC50 was over 200 µM and the 50% inhibitory concentration (IC50) was 8.91 µM.

On to `OC1COCC2N3C(=NN12)Sc1ccccc13` (configuration not stated), for which the outcome was inactive.

Turning to `CCCCCC(=O)C(C)C1=Nc2nnc(CCCCCCCc3nnc4n3C(=O)C(C(C)C(=O)CCCCC)=N4)n2C1=O` (configuration not stated), the EC50 was over 2.45 µM and the IC50 was over 2.45 µM.

For orientation: EC50 means the concentration giving half of the maximal effect. A word on the IC50: it is the concentration that gives 50% inhibition.
